Source: PubChem BioAssay AID1259407 (Chemical Carcinogenesis Research Information System (CCRIS), 2018)
Calls of active or inactive are those of the source. How the calls were made is not given here.

Tested on: CCRIS mutagenicity, Ames/micronucleus/aberration tests
Assay: CCRIS mutagenicity studies
[1] = Test System: AMES SALMONELLA TYPHIMURIUM, Strain/Indicator: TA98, Metabolic Activation: NONE, Method: PREINCUBATION
[2] = Test System: AMES SALMONELLA TYPHIMURIUM, Strain/Indicator: TA100, Metabolic Activation: NONE, Method: PREINCUBATION
[3] = Test System: AMES SALMONELLA TYPHIMURIUM, Strain/Indicator: TA1535, Metabolic Activation: NONE, Method: PREINCUBATION
[4] = Test System: AMES SALMONELLA TYPHIMURIUM, Strain/Indicator: TA98, Metabolic Activation: NONE, Method: STANDARD PLATE
[5] = Test System: AMES SALMONELLA TYPHIMURIUM, Strain/Indicator: TA100, Metabolic Activation: NONE, Method: STANDARD PLATE

## C=C(C)/C([O-])=N/[N+](C)(C)CC(C)O (centres undefined)
Test System: AMES SALMONELLA TYPHIMURIUM, Strain/Indicator: TA97, Metabolic Activation: HAMSTER, LIVER, S-9, AROCLOR 1254 (10 OR 30%), Method: PREINCUBATION
  mutagenic call: inactive; negative
Test System: AMES SALMONELLA TYPHIMURIUM, Strain/Indicator: TA97, Metabolic Activation: NONE, Method: PREINCUBATION
  mutagenic call: inactive; negative
Test System: AMES SALMONELLA TYPHIMURIUM, Strain/Indicator: TA97, Metabolic Activation: RAT, LIVER, S-9, AROCLOR 1254 (10 OR 30%), Method: PREINCUBATION
  mutagenic call: inactive; negative
Test System: AMES SALMONELLA TYPHIMURIUM, Strain/Indicator: TA98, Metabolic Activation: HAMSTER, LIVER, S-9, AROCLOR 1254 (10 OR 30%), Method: PREINCUBATION
  mutagenic call: inactive; negative
[1]
  mutagenic call: inactive; negative
Test System: AMES SALMONELLA TYPHIMURIUM, Strain/Indicator: TA98, Metabolic Activation: RAT, LIVER, S-9, AROCLOR 1254 (10 OR 30%), Method: PREINCUBATION
  mutagenic call: inactive; negative
Test System: AMES SALMONELLA TYPHIMURIUM, Strain/Indicator: TA100, Metabolic Activation: HAMSTER, LIVER, S-9, AROCLOR 1254 (10 OR 30%), Method: PREINCUBATION
  mutagenic call: inactive; negative
[2]
  mutagenic call: inactive; negative
Test System: AMES SALMONELLA TYPHIMURIUM, Strain/Indicator: TA100, Metabolic Activation: RAT, LIVER, S-9, AROCLOR 1254 (10 OR 30%), Method: PREINCUBATION
  mutagenic call: inactive; negative
Test System: AMES SALMONELLA TYPHIMURIUM, Strain/Indicator: TA1535, Metabolic Activation: HAMSTER, LIVER, S-9, AROCLOR 1254 (10 OR 30%), Method: PREINCUBATION
  mutagenic call: inactive; negative
[3]
  mutagenic call: inactive; negative
Test System: AMES SALMONELLA TYPHIMURIUM, Strain/Indicator: TA1535, Metabolic Activation: RAT, LIVER, S-9, AROCLOR 1254 (10 OR 30%), Method: PREINCUBATION
  mutagenic call: inactive; negative

## O=S(=O)(O)NC1CCCCC1
Test System: CHINESE HAMSTER OVARY, Strain/Indicator: CHO-K1-BH4 (HGPRT), Metabolic Activation: NONE, Method: STANDARD PLATE
  mutagenic call: inactive; negative
Test System: CHINESE HAMSTER OVARY, Strain/Indicator: CHO-K1-BH4 (HGPRT), Metabolic Activation: RAT, LIVER, S-9, Method: STANDARD PLATE
  mutagenic call: inactive; negative
Test System: UDS RODENT HEPATOCYTES, Strain/Indicator: THY INCORP (NON-S-PHASE), Metabolic Activation: NONE, Method: AUTORADIOGRAPHY
  mutagenic call: inactive; negative

## CC(=O)O[C@]1(C)C(=O)OC/C2=C/CN(C)CC[C@@H](OC(=O)C3(C[C@H]1C)O[C@@H]3C)C2=O (some centres undefined)
Test System: UDS RAT HEPATOCYTES, Strain/Indicator: THY INCORP, Metabolic Activation: NONE, Method: AUTORADIOGRAPHY
  mutagenic call: active; positive

## ClCc1c2ccccc2c2ccc3cccc4ccc1c2c43
[4]
  mutagenic call: inactive; negative
[5]
  mutagenic call: inactive; negative

## O=C(NC(=O)c1c(F)cccc1F)Nc1cc(Cl)c(Oc2ncc(C(F)(F)F)cc2Cl)c(Cl)c1
[4]
  mutagenic call: inactive; negative
Test System: AMES SALMONELLA TYPHIMURIUM, Strain/Indicator: TA98, Metabolic Activation: RAT, LIVER, S-9, AROCLOR 1254, Method: STANDARD PLATE
  mutagenic call: inactive; negative
[5]
  mutagenic call: inactive; negative
Test System: AMES SALMONELLA TYPHIMURIUM, Strain/Indicator: TA100, Metabolic Activation: RAT, LIVER, S-9, AROCLOR 1254, Method: STANDARD PLATE
  mutagenic call: inactive; negative
Test System: AMES SALMONELLA TYPHIMURIUM, Strain/Indicator: TA1535, Metabolic Activation: NONE, Method: STANDARD PLATE
  mutagenic call: inactive; negative
Test System: AMES SALMONELLA TYPHIMURIUM, Strain/Indicator: TA1535, Metabolic Activation: RAT, LIVER, S-9, AROCLOR 1254, Method: STANDARD PLATE
  mutagenic call: inactive; negative
Test System: AMES SALMONELLA TYPHIMURIUM, Strain/Indicator: TA1537, Metabolic Activation: NONE, Method: STANDARD PLATE
  mutagenic call: inactive; negative
Test System: AMES SALMONELLA TYPHIMURIUM, Strain/Indicator: TA1537, Metabolic Activation: RAT, LIVER, S-9, AROCLOR 1254, Method: STANDARD PLATE
  mutagenic call: inactive; negative
Test System: AMES SALMONELLA TYPHIMURIUM, Strain/Indicator: TA1538, Metabolic Activation: NONE, Method: STANDARD PLATE
  mutagenic call: inactive; negative
Test System: AMES SALMONELLA TYPHIMURIUM, Strain/Indicator: TA1538, Metabolic Activation: RAT, LIVER, S-9, AROCLOR 1254, Method: STANDARD PLATE
  mutagenic call: inactive; negative

## Cc1ccc(NO)cc1C
[2]
  mutagenic call: active; positive
Test System: AMES SALMONELLA TYPHIMURIUM, Strain/Indicator: TA100, Metabolic Activation: RAT, LIVER, S-9, PCB, Method: PREINCUBATION
  mutagenic call: active; positive

## ClCC(Cl)CBr (centres undefined)
Test System: AMES SALMONELLA TYPHIMURIUM, Strain/Indicator: TA100, Metabolic Activation: RAT, LIVER, MICROSOMES, PHENOBARBITAL, NADPH COFACTORS, Method: STANDARD PLATE
  mutagenic call: active; positive
Test System: AMES SALMONELLA TYPHIMURIUM, Strain/Indicator: TA100, Metabolic Activation: RAT, LIVER, MICROSOMES, PHENOBARBITAL, Method: STANDARD PLATE
  mutagenic call: inactive; negative

## CCCC(C)(COC(N)=O)COC(=O)NC(C)C (centres undefined)
Test System: AMES SALMONELLA TYPHIMURIUM, Strain/Indicator: TA98, Metabolic Activation: HAMSTER, LIVER, S-9, AROCLOR 1254 (10%), Method: PREINCUBATION
  mutagenic call: inactive; negative
[1]
  mutagenic call: inactive; negative
Test System: AMES SALMONELLA TYPHIMURIUM, Strain/Indicator: TA98, Metabolic Activation: RAT, LIVER, S-9, AROCLOR 1254 (10%), Method: PREINCUBATION
  mutagenic call: inactive; negative
Test System: AMES SALMONELLA TYPHIMURIUM, Strain/Indicator: TA100, Metabolic Activation: HAMSTER, LIVER, S-9, AROCLOR 1254 (10%), Method: PREINCUBATION
  mutagenic call: inactive; negative
[2]
  mutagenic call: inactive; negative
Test System: AMES SALMONELLA TYPHIMURIUM, Strain/Indicator: TA100, Metabolic Activation: RAT, LIVER, S-9, AROCLOR 1254 (10%), Method: PREINCUBATION
  mutagenic call: inactive; negative
Test System: AMES SALMONELLA TYPHIMURIUM, Strain/Indicator: TA1535, Metabolic Activation: HAMSTER, LIVER, S-9, AROCLOR 1254 (10%), Method: PREINCUBATION
  mutagenic call: inactive; negative
[3]
  mutagenic call: inactive; negative
Test System: AMES SALMONELLA TYPHIMURIUM, Strain/Indicator: TA1535, Metabolic Activation: RAT, LIVER, S-9, AROCLOR 1254 (10%), Method: PREINCUBATION
  mutagenic call: inactive; negative
Test System: AMES SALMONELLA TYPHIMURIUM, Strain/Indicator: TA1537, Metabolic Activation: HAMSTER, LIVER, S-9, AROCLOR 1254 (10%), Method: PREINCUBATION
  mutagenic call: inactive; negative
Test System: AMES SALMONELLA TYPHIMURIUM, Strain/Indicator: TA1537, Metabolic Activation: NONE, Method: PREINCUBATION
  mutagenic call: inactive; negative
Test System: AMES SALMONELLA TYPHIMURIUM, Strain/Indicator: TA1537, Metabolic Activation: RAT, LIVER, S-9, AROCLOR 1254 (10%), Method: PREINCUBATION
  mutagenic call: inactive; negative
